# Results from ChEMBL document CHEMBL4831556, “Discovery of a Novel Potent and Selective Calcium Release-Activated Calcium Channel Inhibitor: 2,6-Difluoro-N-(2'-methyl-3'-(4-methyl-5-oxo-4,5-dihydro-1,3,4-oxadiazol-2-yl)-[1,1'-biphenyl]-4-yl)benzamide. Structure-Activity Relationship and Preclinical Characterization” (J Med Chem, 2021).
# Tests used:
# [1] = Inhibition of SOCE in rat RBL-2H3 cells preincubated for 5 mins with thapsigargin followed by calcium chloride addition and measured after 5 mins by Fura-2AM dye based analysis; format: cell-based
# ORAI1/STIM1 [2] = molecular target: T1, ORAI1/STIM1 (Homo sapiens, UniProt Q13586+Q96D31); experiment: Inhibition of human STIM1/Orai1 expressed in HEK293 cells assessed as reduction in Orai1 current by electrophysiological method; format: cell-based
# [3] = molecular target: Stromal interaction molecule 1/Protein orai-3 (Homo sapiens, UniProt Q13586+Q9BRQ5); experiment: Inhibition of human STIM1/Orai3 expressed in HEK293 cells assessed as reduction in Orai3 current by electrophysiological method; format: cell-based
# [4] = AUClast in Lewis rat at 10 mg/kg, po measured upto 24 hrs by LC-MS/MS analysis; format: ADME, organism-based; set-up: route oral, dose 10 mg/kg, time <=24; details: in vivo
# [5] = Half life in Lewis rat at 1 mg/kg, iv measured upto 24 hrs by LC-MS/MS analysis; format: ADME, organism-based; details: in vivo
# [6] = Clearance in Lewis rat at 1 mg/kg, iv measured upto 24 hrs by LC-MS/MS analysis; format: ADME, organism-based; details: in vivo
# [7] = Cmax in Lewis rat at 10 mg/kg, po measured upto 24 hrs by LC-MS/MS analysis; format: ADME, organism-based; set-up: route oral, dose 10 mg/kg, time <=24; details: in vivo
# [8] = Oral bioavailability in Lewis rat at 10 mg/kg measured upto 24 hrs by LC-MS/MS analysis; format: ADME, organism-based; details: in vivo
# [9] = Volume of distribution at steady state in Lewis rat at 1 mg/kg, iv measured upto 24 hrs by LC-MS/MS analysis; format: ADME, organism-based; details: in vivo, read-out: Vdss
# [10] = Tmax in Lewis rat at 10 mg/kg, po measured upto 24 hrs by LC-MS/MS analysis; format: ADME, organism-based; details: in vivo
# [11] = Half life in Lewis rat at 10 mg/kg, po measured upto 24 hrs by LC-MS/MS analysis; format: ADME, organism-based; details: in vivo
# [12] = Inhibition of SOCE in human Jurkat E6.1 cells preincubated for 10 to 30 mins in presence of thapsigargin followed by calcium chloride addition and measured after 10 mins by FLIPR-tetra analysis; format: cell-based
# [13] = Cmax in Lewis rat at 1 mg/kg, iv measured upto 24 hrs by LC-MS/MS analysis; format: ADME, organism-based; set-up: route intravenous, dose 1 mg/kg, time <=24; details: in vivo
# [14] = AUClast in Lewis rat at 1 mg/kg, iv measured upto 24 hrs by LC-MS/MS analysis; format: ADME, organism-based; set-up: route intravenous, dose 1 mg/kg, time <=24; details: in vivo
# [15] = Tmax in Lewis rat at 1 mg/kg, iv measured upto 24 hrs by LC-MS/MS analysis; format: ADME, organism-based; details: in vivo
# ORAI1/STIM1 [16] = molecular target: T1, ORAI1/STIM1; experiment: Inhibition of Orai1/STIM1 (unknown origin) expressed in HEK293 cells assessed as reduction in Ca2+-release activated Ca2+ entry current by manual patch clamp based electrophysiological method; format: cell-based
# [17] = Tmax in collagen-induced rheumatoid arthritis DBA/1J mouse model at 0.75 mg/kg, po administered once daily for 15 days; format: ADME, organism-based; details: in vivo, time 15 day
# [18] = AUClast in collagen-induced rheumatoid arthritis DBA/1J mouse model at 0.75 mg/kg, po administered once daily for 15 days in presence of 3 mg/kg compound 36; format: ADME, organism-based; set-up: route oral, dose 0.75 mg/kg, time 15 day; details: in vivo
# [19] = Tmax in collagen-induced rheumatoid arthritis DBA/1J mouse model at 0.75 mg/kg, po administered once daily for 15 days in presence of 3 mg/kg compound 36; format: ADME, organism-based; details: in vivo, time 15 day
# [20] = AUClast in collagen-induced rheumatoid arthritis DBA/1J mouse model at 0.75 mg/kg, po administered once daily for 15 days; format: ADME, organism-based; set-up: route oral, time 15 day, dose 0.75 mg/kg; details: in vivo
# in vivo [21] = details: DBA/1J, mouse, po, 0.75 mg/kg
# Description: Cmax in collagen-induced rheumatoid arthritis DBA/1J mouse model at 0.75 mg/kg, po administered once daily for 15 days
# in vivo [22] = details: DBA/1J, mouse, po, 0.75 mg/kg; remark: listed apart in the source
# [23] = molecular target: Protein orai-2/Stromal interaction molecule 1 (Homo sapiens, UniProt Q13586+Q96SN7); experiment: Inhibition of Orai2/STIM1 (unknown origin); format: protein-complex assay
# ORAI1/STIM1 [24] = molecular target: T1, ORAI1/STIM1; experiment: Inhibition of Orai1/STIM1 (unknown origin); format: protein-complex assay
# T1 sequence (Q96D31 whole entry): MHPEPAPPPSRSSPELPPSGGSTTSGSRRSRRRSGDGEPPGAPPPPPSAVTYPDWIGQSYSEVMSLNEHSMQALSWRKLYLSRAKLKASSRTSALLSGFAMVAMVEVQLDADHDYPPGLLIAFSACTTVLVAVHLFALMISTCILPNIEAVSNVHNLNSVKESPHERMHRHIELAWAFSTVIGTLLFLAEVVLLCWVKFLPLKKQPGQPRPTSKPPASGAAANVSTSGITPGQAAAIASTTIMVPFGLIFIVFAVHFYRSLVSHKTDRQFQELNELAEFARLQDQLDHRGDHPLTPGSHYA
# T1 sequence (Q13586 whole entry): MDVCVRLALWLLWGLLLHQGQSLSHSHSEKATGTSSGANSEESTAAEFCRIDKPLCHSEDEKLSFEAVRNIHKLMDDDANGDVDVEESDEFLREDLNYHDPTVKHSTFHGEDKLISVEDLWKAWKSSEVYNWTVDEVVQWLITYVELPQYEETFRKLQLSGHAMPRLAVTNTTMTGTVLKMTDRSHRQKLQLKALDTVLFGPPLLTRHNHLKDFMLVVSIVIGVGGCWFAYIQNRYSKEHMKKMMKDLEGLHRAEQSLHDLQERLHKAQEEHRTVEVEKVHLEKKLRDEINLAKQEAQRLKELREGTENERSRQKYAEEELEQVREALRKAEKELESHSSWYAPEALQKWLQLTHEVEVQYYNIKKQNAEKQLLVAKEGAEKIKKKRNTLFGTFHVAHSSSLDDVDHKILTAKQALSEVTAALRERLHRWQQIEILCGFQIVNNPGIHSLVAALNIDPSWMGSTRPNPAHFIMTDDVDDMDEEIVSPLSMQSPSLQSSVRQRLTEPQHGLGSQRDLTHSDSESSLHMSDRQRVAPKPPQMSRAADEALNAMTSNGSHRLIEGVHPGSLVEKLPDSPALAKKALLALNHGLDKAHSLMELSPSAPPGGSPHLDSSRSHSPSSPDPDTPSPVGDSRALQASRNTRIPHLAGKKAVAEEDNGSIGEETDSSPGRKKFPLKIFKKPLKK
# Sequence of Protein orai-2/Stromal interaction molecule 1 (Q96SN7 whole entry): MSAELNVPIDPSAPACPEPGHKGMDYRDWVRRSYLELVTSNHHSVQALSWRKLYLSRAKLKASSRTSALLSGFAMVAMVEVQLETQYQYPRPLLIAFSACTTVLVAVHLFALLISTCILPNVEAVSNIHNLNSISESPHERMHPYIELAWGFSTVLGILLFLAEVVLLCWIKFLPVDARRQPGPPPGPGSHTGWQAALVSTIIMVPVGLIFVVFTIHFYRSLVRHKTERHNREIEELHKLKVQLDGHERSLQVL
# Sequence of Protein orai-2/Stromal interaction molecule 1 (Q13586 whole entry): as the sequence (Q13586 whole entry) above
smiles,measurement,setting,value
O=C(Nc1ccc(-n2nc(C(F)(F)F)cc2C(F)(F)F)cc1)c1ccncc1F,IC50,[1],490 nM
O=C(Nc1ccn(Cc2ccc(O)cc2C(F)(F)F)n1)c1c(F)cccc1F,IC50,ORAI1/STIM1 [2],4000 nM
same,IC50,[3],4000 nM
Cc1ccc(C2=NOC(C)(C)C2=O)cc1-c1cnc(NC(=O)c2c(F)cccc2F)cn1,AUC(0-t) at 24 h,[4],13 µM·h
O=C(Nc1ccc(-c2cc(C(F)(F)F)ccc2Cl)cc1)c1c(F)cccc1F,AUC(0-t) at 24 h,[4],0.93 µM·h
Cc1ccc(-c2nn(C)c(=O)o2)cc1-c1ccc(NC(=O)c2c(F)cccc2F)cc1,half-life,[5],7 h
same,clearance,[6],1.4 mL/min/kg
same,Cmax,[7],4100 nM
same,AUC(0-t) at 24 h,[4],75 µM·h
same,bioavailability,[8],28%
same,Vd,[9],0.7 L/kg
same,Tmax,[10],4.8 h
same,half-life,[11],15.2 h
same,IC50,[12],140 nM
same,Cmax,[13],4400 nM
same,AUC(0-t) at 24 h,[14],27 µM·h
same,Tmax,[15],4.8 min
O=C(Nc1ccn(Cc2c(F)cccc2C(F)(F)F)n1)c1c(F)cccc1F,IC50,ORAI1/STIM1 [16],1000 nM
CN(Cc1cnc2nc(N)nc(N)c2n1)c1ccc(C(=O)N[C@@H](CCC(=O)O)C(=O)O)cc1 [METHOTREXATE],Tmax,[17],1 h
same,AUC(0-t) at 360 h,[18],0.6 µM·h
same,Tmax,[19],1 h
same,AUC(0-t) at 360 h,[20],0.4 µM·h
same,Cmax at 360 h,in vivo [21],100 nM
same,Cmax at 360 h,in vivo [22],200 nM
Cc1cccc(F)c1C(=O)Nc1cnc(-c2cc3c(cc2Cl)OC(F)(F)O3)cn1 [ZEGOCRACTIN],IC50,[23],895 nM
same,IC50,ORAI1/STIM1 [24],119 nM
